Laboratory results as given in patent publication US20230365533A1, “BICYCLOHEPTANE PYRROLIDINE OREXIN RECEPTOR AGONISTS” (MERCK SHARP & DOHME CORP., priority 2021, published 2023).
pIC50: −log10 of the molar value.

Target: T1, human OX2R (Homo sapiens, UniProt O43614)
T1 construct: expressed in transfected cells; host or cells: CHO (Chinese hamster ovary) cells, grown under G418 selection
T1 sequence (O43614 1-444): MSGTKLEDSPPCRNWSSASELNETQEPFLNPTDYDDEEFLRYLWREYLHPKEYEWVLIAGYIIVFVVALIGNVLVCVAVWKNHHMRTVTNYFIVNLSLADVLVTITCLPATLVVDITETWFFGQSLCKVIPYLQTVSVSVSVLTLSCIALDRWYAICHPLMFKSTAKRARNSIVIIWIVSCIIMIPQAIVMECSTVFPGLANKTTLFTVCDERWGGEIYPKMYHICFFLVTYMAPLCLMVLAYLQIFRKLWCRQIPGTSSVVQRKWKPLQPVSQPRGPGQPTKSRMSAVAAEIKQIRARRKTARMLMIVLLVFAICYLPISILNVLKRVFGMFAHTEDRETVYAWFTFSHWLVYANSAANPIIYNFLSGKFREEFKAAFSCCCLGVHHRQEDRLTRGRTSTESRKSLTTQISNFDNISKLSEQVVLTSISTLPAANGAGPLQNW
Assay: IPOne (IP-1) orexin receptor agonist assay in CHO cells expressing human OX2R
Assay type: cell-based
Conditions: CHO, percent of mean max effect of a reference compound at 1 uM with 100% activity vs Orexin A, human OX2R
Procedure, shortened: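 CHO cells with human OX2R treated 2 h at 37 °C with 10-point ½-log compound dilutions in stimulation buffer; IP-1 accumulation read by HTRF (665/620 nm) after 60 min detection. EC50 from four-parameter fit; % effect versus a 1 uM reference agonist.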

With `COC(=O)N1[C@H](C)C[C@H](NS(=O)(=O)N(C)C)[C@@H]1COC1CCC2(c3ncc(F)cn3)CC2C1` (stereo partly drawn) [Example 169, methyl (2R,3S,5R)-3-((N,N-dimethylsulfamoyl)amino)-2-(((6-(5-fluoropyrimidin-2-yl)bicyclo[4.1.0]heptan-3-yl)oxy)methyl)-5-methylpyrrolidine-1-carboxylate] the Emax was 100%.

Same assay, conditions: IPOne assay, CHO cells expressing human OX2R, 2 hours incubation; read-out: hoX2R_IP IC50

First: CCS(=O)(=O)N[C@H]1C[C@@H](C(F)F)N(C(=O)OC)[C@H]1COC1CCC2(c3ncc(F)cn3)CC2C1 (stereo partly drawn) [Example 117, methyl (2R,3S,5S)-5-(difluoromethyl)-3-(ethylsulfonamido)-2-(((6-(5-fluoropyrimidin-2-yl)bicyclo[4.1.0]heptan-3-yl)oxy)methyl)pyrrolidine-1-carboxylate]
Second: COC(=O)N1[C@H](C)C[C@H](NS(=O)(=O)CCl)[C@@H]1CO[C@H]1CC[C@@]2(c3ncc(F)cn3)C[C@H]2C1 [Example 37, methyl (2R,3S,5R)-3-((chloromethyl)sulfonamido)-2-((((1S,3S,6R)-6-(5-fluoropyrimidin-2-yl)bicyclo[4.1.0]heptan-3-yl)oxy)methyl)-5-methylpyrrolidine-1-carboxylate]
The pIC50 of the first is 0.24 log units higher: 8.92 for the first, 8.68 for the second. The first is the more potent here.

First: CC(C)OC(=O)N1[C@H](C)C[C@H](NS(=O)(=O)CF)[C@@H]1COC1CCC2(c3ncc(F)cn3)CC2C1 (stereo partly drawn) [Example 111, isopropyl (2R,3S,5R)-3-((fluoromethyl)sulfonamido)-2-(((6-(5-fluoropyrimidin-2-yl)bicyclo[4.1.0]heptan-3-yl)oxy)methyl)-5-methylpyrrolidine-1-carboxylate]
Second: CC(C)OC(=O)N1[C@H](C)C[C@H](NS(=O)(=O)C(F)F)[C@@H]1COC1CCC2(c3ncc(F)cn3)CC2C1 (stereo partly drawn) [Example 109, isopropyl (2R,3S,5R)-3-((difluoromethyl)sulfonamido)-2-(((6-(5-fluoropyrimidin-2-yl)bicyclo[4.1.0]heptan-3-yl)oxy)methyl)-5-methylpyrrolidine-1-carboxylate]
The pIC50 of the first is 0.54 log units higher: 9.00 for the first, 8.46 for the second.

First: COC(=O)N1[C@H](C)C[C@H](NS(=O)(=O)N(C)C)[C@@H]1COC1CCC2(c3ncccn3)CC2C1 (stereo partly drawn) [Example 6, methyl (2R,3S,5R)-3-((N,N-dimethylsulfamoyl)amino)-5-methyl-2-(((6-(pyrimidin-2-yl)bicyclo[4.1.0]heptan-3-yl)oxy)methyl)pyrrolidine-1-carboxylate]
Second: CC(C)OC(=O)N1[C@H](C)C[C@H](NS(=O)(=O)N(C)C)[C@@H]1CO[C@@H]1CC[C@]2(c3ncccn3)C[C@@H]2C1 (single isomer, unassigned) [Example 170]
The pIC50 of the first is 0.75 log units higher: 9.03 for the first, 8.28 for the second. The first is the more potent here.

`COC(=O)N1[C@H](C)C[C@H](NS(=O)(=O)C(F)(F)F)[C@@H]1CO[C@H]1CC[C@@]2(c3ncc(F)cn3)C[C@H]2C1` [Example 31, methyl (2R,3S,5R)-2-((((1S,3S,6R)-6-(5-fluoropyrimidin-2-yl)bicyclo[4.1.0]heptan-3-yl)oxy)methyl)-5-methyl-3-((trifluoromethyl)sulfonamido)pyrrolidine-1-carboxylate] and `C[C@@H]1C[C@H](NS(C)(=O)=O)[C@H](CO[C@H]2CC[C@@]3(c4ncc(F)cn4)C[C@H]3C2)N1C(=O)OCC(C)(F)F` [Example 64, 2,2-difluoropropyl (2R,3S,5R)-2-((((1S,3S,6R)-6-(5-fluoropyrimidin-2-yl)bicyclo[4.1.0]heptan-3-yl)oxy)methyl)-5-methyl-3-(methylsulfonamido)pyrrolidine-1-carboxylate] are within 0.2 log units of each other in pIC50: 8.52 for the first, 8.68 for the second.

Going from `CCS(=O)(=O)N[C@H]1[C@H]2CCC[C@H]2N(C(=O)OC)[C@H]1COC1CCC2(c3ncc(F)cn3)CC2C1` (stereo partly drawn) [Example 129, methyl (2R,3S,3aS,6aR)-3-(ethylsulfonamido)-2-(((6-(5-fluoropyrimidin-2-yl)bicyclo[4.1.0]heptan-3-yl)oxy)methyl)hexahydrocyclopenta[b]pyrrole-1(2H)-carboxylate] to `CCS(=O)(=O)N[C@H]1CCCN(C(=O)OC(C)C)[C@H]1COC1CC[C@@]2(c3ncc(F)cn3)CC2C1` (stereo partly drawn) [Example 126, isopropyl (2R,3S)-3-(ethylsulfonamido)-2-(((6-(5-fluoropyrimidin-2-yl)bicyclo[4.1.0]heptan-3-yl)oxy)methyl)piperidine-1-carboxylate], the pIC50 falls from 9.05 to 8.48 (0.57 log units). The first is the more potent here.

First: COC(=O)N1[C@H](C)C[C@H](NS(=O)(=O)N(C)C)[C@@H]1COC1CCC2(c3ccc(C#N)cc3)CC2C1 (stereo partly drawn) [Example 5, methyl (2R,3S,5R)-2-(((6-(4-cyanophenyl)bicyclo[4.1.0]heptan-3-yl)oxy)methyl)-3-((N,N-dimethylsulfamoyl)amino)-5-methylpyrrolidine-1-carboxylate]
Second: COC(=O)N1[C@H](C)C[C@H](NS(=O)(=O)C(F)F)[C@@H]1CO[C@@H]1CC[C@]2(c3ncccn3)C[C@@H]2C1 (single isomer, unassigned) [Example 69]
The pIC50 of the first is 1.13 log units lower: 6.56 for the first, 7.69 for the second.

First: COC(=O)N1[C@H](C)C[C@H](NS(=O)(=O)C2COC2)[C@@H]1CO[C@H]1CC[C@@]2(c3ncc(F)cn3)C[C@H]2C1 [Example 40, methyl (2R,3S,5R)-2-((((1S,3S,6R)-6-(5-fluoropyrimidin-2-yl)bicyclo[4.1.0]heptan-3-yl)oxy)methyl)-5-methyl-3-(oxetane-3-sulfonamido)pyrrolidine-1-carboxylate]
Second: COC(=O)N1[C@H](C)C[C@H](NS(=O)(=O)CF)[C@@H]1COC1CCC2(c3ncc(Br)cn3)CC2C1 (stereo partly drawn) [Example 89, methyl (2R,3S,5R)-2-(((6-(5-bromopyrimidin-2-yl)bicyclo[4.1.0]heptan-3-yl)oxy)methyl)-3-((fluoromethyl)sulfonamido)-5-methylpyrrolidine-1-carboxylate]
The pIC50 of the first is 0.64 log units lower: 8.36 for the first, 9.00 for the second.

`CCC(F)(F)COC(=O)N1[C@H](C)C[C@H](NS(C)(=O)=O)[C@@H]1CO[C@H]1CC[C@@]2(c3ncc(F)cn3)C[C@H]2C1` [Example 60, 2,2-difluorobutyl (2R,3S,5R)-2-((((1S,3S,6R)-6-(5-fluoropyrimidin-2-yl)bicyclo[4.1.0]heptan-3-yl)oxy)methyl)-5-methyl-3-(methylsulfonamido)pyrrolidine-1-carboxylate] and `COC(=O)N1[C@H](C)C[C@H](NS(=O)(=O)C(F)F)[C@@H]1CO[C@H]1CC[C@@]2(c3ncccn3)C[C@H]2C1` (single isomer, unassigned) [Example 68] are within 0.2 log units of each other in pIC50: 8.85 for the first, 8.82 for the second.
